Assay results reported in PMC6888270 (International Journal of Molecular Sciences, 2019).
Square brackets hold non-standard residues; d marks the D form. Peptide text beside a SMILES is read from it. Phe(4-Cl) = N[C@@H](Cc1ccc(Cl)cc1)C(=O)O; d2Nal = N[C@H](Cc1ccc2ccccc2c1)C(=O)O; d(hCit) = NC(=O)NCCCC[C@@H](N)C(=O)O; Lys(iPr) = CC(C)NCCCC[C@H](N)C(=O)O; d3Pal = N[C@H](Cc1cccnc1)C(=O)O

Assays:
[1] = test system: β-catenin activation; experiment: Immunofluorescence of active β-catenin in HEK293/GnRHR cells; assay type: cell-based, human; details: 1 µM GnRH + 1 µM antagonist, 1 h
Description: In order to evaluate the activation of phospho-proteins and β-catenin by Western blotting and immunofluorescence, 1 × 10^5 HEK293 cells were transiently transfected in a 24-well plate. To this purpose, 500 ng of GnRHR-HA-encoding vector diluted in 2 µL/well Lipofectamine® 2000 Transfection Reagent (Invitrogen) were used, according to the manufacturer’s instructions. Transfected HEK293 cells (HEK293/GnRHR) were cultured for 48 h and maintained over-night in serum-free medium before experiments.
3 × 10^4 HEK293/GnRHR and mock-transfected HEK293 cells (negative control) were plated on gelatine-treated slides. […] As a positive control, cells were treated for 16 h with 100 nM of the selective glycogen synthase kinase 3 (GSK3) inhibitor, CHIR99021 (Sigma-Aldrich), which stabilizes free cytosolic β-catenin [68]. After stimulations, cells were washed in PBS with Ca^2+/Mg^2+ and fixed for 20 min in paraformaldehyde 4%/PBS. Cell monolayers were washed by PBS and permeabilized using 0.1% Triton X-100. Samples were incubated in 4% bovine serum albumin (BSA)/PBS, for 1 h at room temperature (RT), before incubation with a mouse primary antibody targeting β-catenin (#05-665, 1:300 dilution in 4% BSA/PBS; Merck KGaA) overnight at 4 °C. Following washing, cells were then incubated with Cy3-conjugated anti-mouse IgG secondary antibody (#C2181, 1:200 dilution in 4% BSA/PBS; Sigma-Aldrich) for 1 h at RT. Cell monolayers were then stained for 10 min with 4′,6-diamidino-2-phenylindole (DAPI) (Sigma-Aldrich) and washed in PBS before slide treatment by polyvinyl alcohol mounting medium with 1,4-diazabicyclo[2.2.2]octane (DABCO®) (Sigma-Aldrich). Fluorescent signals were detected using the Eclipse Ni-E microscope (Nikon Instruments BV, Amsterdam, The Netherlands).

[2] = test system: Lhb gene expression; experiment: Lhb gene expression by qRT-PCR in LβT2 cells; assay type: cell-based, mouse; details: 1 µM GnRH + 1 µM antagonist, 24 h, n = 4
Description: LβT2 cells were seeded in 24-well plates (2 × 10^5 cells/well) and cultured for 24 h in DMEM supplemented with 10% Charcoal Stripped FBS, 4.5 g/L glucose, 100 IU/mL penicillin, 0.1 mg/mL streptomycin, and 1 mM glutamine (all from Sigma-Aldrich) before treatments. […] Samples were lysed for RNA extraction using TRIzolTM Reagent (Invitrogen) and equal amounts of total RNA were used for cDNA synthesis performed using the iScript reverse transcriptase (BioRad), as previously described. qRT-PCR was carried out in triplicates on the CFX96TM Real-Time PCR Detection System (BioRad) using the following primers pairs: [NT] for mouse Lhb; [NT] for mouse Gapdh. Primer sequences were drawn using the Mus musculus Lhb (NCBI Reference Sequence: NM_008497.2) and Gapdh (NM_008084.3) mRNAs as templates. Gene expression of Lhb was normalized to mouse Gapdh gene expression using the 2^-ΔΔCt method.

[3] = molecular target: T1, GnRH receptor (GnRHR) (Homo sapiens, UniProt P30968); experiment: BRET measurement of GnRH-induced intracellular Ca2+ increase in SH-SY5Y/GnRHR cells; assay type: cell-based; parameters: HA (hemagglutinin); expressed in transfected cells; details: means±SEM, n=6
T1 sequence (P30968 1-328): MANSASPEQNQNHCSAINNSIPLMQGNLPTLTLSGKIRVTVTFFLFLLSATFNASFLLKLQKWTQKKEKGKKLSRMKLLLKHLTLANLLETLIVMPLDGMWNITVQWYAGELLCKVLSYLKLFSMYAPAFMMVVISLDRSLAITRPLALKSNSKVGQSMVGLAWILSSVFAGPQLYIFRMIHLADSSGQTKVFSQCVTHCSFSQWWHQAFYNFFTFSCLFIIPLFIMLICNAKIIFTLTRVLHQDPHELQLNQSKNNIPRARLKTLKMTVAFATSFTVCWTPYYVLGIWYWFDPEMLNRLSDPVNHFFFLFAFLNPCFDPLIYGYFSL
Description: (§1) Different transfection protocols were followed, depending on the endpoint to be measured. For BRET experiments, 3 × 10^4 cells were transiently transfected using vectors expressing the cAMP-CAMYEL or the aequorin-Ca^2+ BRET biosensor-encoding cDNA [59], as appropriate, together with the GnRHR-HA-encoding vector. Transfections were performed in a 96-well plate using the Metafectene PRO reagent (Biontex, München, Germany), as previously described. 100 ng of the receptor-encoding vector + 100 ng of the BRET biosensor-encoding vector were used for co-transfecting HEK293 cells, while SH-SY5Y cells were co-transfected using 200 ng of the receptor-encoding vector + 100 ng of the BRET biosensor-encoding vector. 200 ng of the aequorin-Ca^2+ BRET biosensor-encoding cDNA were used for transfecting LβT2 cells. Each sample was prepared in duplicate, cultured for 48 h and serum-starved over-night before experiments.
(§2) To evaluate Ca^2+ increase, cells were incubated in Hank’s Balanced Salt Solution (HBSS) with Ca^2+ and Mg^2+, 1 mM Hepes and 5 µM Coelenterazine H (NanoLight Technologies, a division of Prolume, Ltd., Pinetop, AZ, USA), for 45 minutes, together with Cetrorelix, Ganirelix, Teverelix or vehicle, as appropriate. […] The EC50 was extrapolated from the curve obtained from each cell line. Cells treated by 5 µM of the sarco/endoplasmic reticulum Ca^2+ ATPase enzyme inhibitor, thapsigargin (Tocris Bioscience), served as positive control. Treatment by the vehicle (HBSS) was the negative control and used as a normalizer.
(§3) BRET experiments were performed using a CLARIOstar plate reader equipped by a monocromator (BMG Labtech, Ortenberg, Germany), as previously described.
(§4) Data were plotted on graphs as means ± standard error of means (SEM). The kinetics of intracellular Ca^2+ increase was represented by the BRET biosensor emission after background subtraction (vehicle). […] Data distributions were analyzed by D’Agostino and Pearson normality tests and inhibition of intracellular Ca^2+ increase by different concentrations of antagonist were compared using two-way analysis of variance (ANOVA), followed by Bonferroni post-test or Kruskal-Wallis and proper post-test. cAMP accumulation was represented as acceptor:donor emission ratio (induced BRET changes) after basal subtraction (untreated cells). Dose-response curves were obtained by data interpolation using non-linear regressions and normalized as percentage of the maximal response. EC50s, as well as half-maximal inhibitory concentrations (IC50), were compared by t-test or Mann–Whitney U test, while results obtained by Western blotting and qRT-PCR data were compared by one-way ANOVA followed by Bonferroni post-test. Statistical differences were considered as significant for p < 0.05. These analyses were performed using the GraphPad Prism software (GraphPad Software Inc., San Diego, CA, USA).

[4] = molecular target: T1, GnRH receptor (GnRHR); experiment: BRET measurement of GnRH-induced intracellular Ca2+ increase in HEK293/GnRHR cells; assay type: cell-based; parameters: HA (hemagglutinin); expressed in transfected cells; host or cells: HEK293 (transient co-transfection with BRET biosensor); details: means ± SEM, n = 6
Description: as §1, §2, §3, §4

[5] = molecular target: Hemagglutinin-tagged GnRHR (GnRHR-HA) (UniProt P30968)
[6] = molecular target: T2, murine GnRHR (mouse (endogenous in LβT2)) (UniProt Q01776)
T2 sequence: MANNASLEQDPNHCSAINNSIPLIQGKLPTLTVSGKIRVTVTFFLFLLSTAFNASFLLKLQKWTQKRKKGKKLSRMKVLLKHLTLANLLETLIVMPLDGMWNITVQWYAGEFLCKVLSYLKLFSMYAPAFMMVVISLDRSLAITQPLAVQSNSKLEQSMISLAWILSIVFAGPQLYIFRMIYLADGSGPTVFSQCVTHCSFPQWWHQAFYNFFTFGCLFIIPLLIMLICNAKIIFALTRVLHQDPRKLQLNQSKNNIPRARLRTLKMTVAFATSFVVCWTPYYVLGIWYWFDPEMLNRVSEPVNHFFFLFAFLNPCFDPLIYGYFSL

## CC(=O)N[C@H](Cc1ccc2ccccc2c1)C(=O)N[C@@H](Cc1ccc(Cl)cc1)C(=O)N[C@H](Cc1cccnc1)C(=O)N[C@@H](CO)C(=O)N[C@H](Cc1ccc(O)cc1)C(=O)N[C@H](CCCCNC(N)=O)C(=O)N[C@@H](CC(C)C)C(=O)N[C@@H](CCCCNC(C)C)C(=O)N1CCC[C@H]1C(=O)N[C@H](C)C(N)=O [Teverelix] (Ac-[d2Nal][Phe(4-Cl)][d3Pal]S[dY][d(hCit)]L[Lys(iPr)]P[dA]-NH2)
[1]
  effect on GnRH-induced active β-catenin staining: did not result in any decrease of signal
[2]
  effect on GnRH-induced Lhb gene expression: inhibited
[3]; 3xEC50 GnRH + 1 pM antagonist
  AUC of the kinetics of intracellular Ca2+ response: 143555±29053
[3]; 3xEC50 GnRH + 10 pM antagonist
  AUC of the kinetics of intracellular Ca2+ response: 128010±27347
[3]; 3xEC50 GnRH + 100 pM antagonist
  AUC of the kinetics of intracellular Ca2+ response: 110248±22209
[3]; 3xEC50 GnRH + 1 nM antagonist
  AUC of the kinetics of intracellular Ca2+ response: 96368±17786
[3]; 3xEC50 GnRH + 10 nM antagonist
  AUC of the kinetics of intracellular Ca2+ response: 81812±12486
[3]; 3xEC50 GnRH + 20 nM antagonist
  AUC of the kinetics of intracellular Ca2+ response: 38199±10646
[3]; 3xEC50 GnRH + 100 nM antagonist
  AUC of the kinetics of intracellular Ca2+ response: 76018±13231
[3]; 3xEC50 GnRH + 1 uM antagonist
  AUC of the kinetics of intracellular Ca2+ response: 5686±3292
[4]; 3 × EC50 GnRH + 1 pM antagonist
  AUC of the kinetics of intracellular Ca2+ response: 85,301 ± 21,321
[4]; 3 × EC50 GnRH + 10 pM antagonist
  AUC of the kinetics of intracellular Ca2+ response: 98,939 ± 27,373
[4]; 3 × EC50 GnRH + 100 pM antagonist
  AUC of the kinetics of intracellular Ca2+ response: 58,864 ± 27,101
[4]; 3 × EC50 GnRH + 1 nM antagonist
  AUC of the kinetics of intracellular Ca2+ response: 81,702 ± 18,920
[4]; 3 × EC50 GnRH + 10 nM antagonist
  AUC of the kinetics of intracellular Ca2+ response: 74,321 ± 17,569
[4]; 3 × EC50 GnRH + 75 nM antagonist
  AUC of the kinetics of intracellular Ca2+ response: 42,401 ± 8974
[4]; 3 × EC50 GnRH + 100 nM antagonist
  AUC of the kinetics of intracellular Ca2+ response: 29,931 ± 8731
[4]; 3 × EC50 GnRH + 1 µM antagonist
  AUC of the kinetics of intracellular Ca2+ response: 4107 ± 3804

## Cetrorelix acetate (peptide)
[5]
  IC50 of inhibition of 3 × EC50 GnRH-induced cAMP accumulation (CAMYEL BRET), HEK293/GnRHR cells: 0.84 nM
  IC50 of inhibition of 3 × EC50 GnRH-induced cAMP accumulation (CAMYEL BRET), SH-SY5Y/GnRHR cells: 1.56 nM

## Ganirelix acetate (peptide)
[5]
  IC50 of inhibition of 3 × EC50 GnRH-induced cAMP accumulation (CAMYEL BRET), HEK293/GnRHR cells: 0.61 nM
  IC50 of inhibition of 3 × EC50 GnRH-induced cAMP accumulation (CAMYEL BRET), SH-SY5Y/GnRHR cells: 16.6 nM

## Gonadotropin releasing hormone (GnRH) (from UniProt P01148 24-33) (peptide)
[6]
  EC50 of GnRH-induced intracellular Ca^2+ accumulation (BRET biosensor), LβT2 cells: 1.8 nM

## Teverelix (peptide)
[5]
  IC50 of inhibition of 3 × EC50 GnRH-induced cAMP accumulation (CAMYEL BRET), HEK293/GnRHR cells: 0.49 nM
  IC50 of inhibition of 3 × EC50 GnRH-induced cAMP accumulation (CAMYEL BRET), SH-SY5Y/GnRHR cells: 62.8 nM
